Literature values as cited in patent US20090018199A1, “Methods of Administering 3, 3, 14, 14 Tetramethyl Hexadecane 1, 16 Dioic Acid” (SYNDROME X LTD., priority 2003, published 2009).

Tested on: patients
Conditions: follow-up 15 years total, patients randomized to niacin

O=C(O)c1cccnc1 [Niacin, niacin]
decrease in all-cause mortality: 11%
